The target of data set [1] is T1, poly(ADP-ribose) polymerase (PARP) (Bos taurus, UniProt P18493).
T1 construct: purified PARP derived from foetal calf thymus; from tissue; host or cells: foetal calf thymus
Nature of the data set: Activity against purified PARP, [3H]NAD incorporation. In kind it is biochemical. The conditions noted are these: purified PARP from foetal calf thymus, 37° C., 30 mins; read-out: IC50 of PARP inhibitors tested on enzyme prepared from bovine thymus. The protocol: The activity on PARP was evaluated using purified PARP derived from foetal calf thymus, as per Ito et al. (J. Biol. Chem. […]: 3647, 1979). […] The active fractions were used for the activity tests carried out as per Banasik et al. (J. Biol. Chem. 267: 1569, 1992). […] The reaction was terminated with 10% of trichloroacetic acid and the radioactivity associated with the protein was evaluated in a liquid scintillation spectrometer.

The subject of data set [2] is primary neuronal cultures. Nature of the data set: Post-ischaemic neuronal death in primary neuronal cultures exposed to oxygen and glucose deprivation. The class given is cell-based. The conditions noted are these: read-out: IC50 for reducing post-ischaemic neuronal death. The protocol:
(§1) 2) The biological activity was evaluated in primary neuronal cultures exposed to oxygen and glucose deprivation (see: Neuropharmacology 38: 1007-[…]) and in vivo in rats with MCA [sic]. The volume of the infarct was measured 72 hrs after the occlusion using a method described previously (Cozzi et al., J. Cerebrali Blood Flow Metabolism 19: 771-777; 1999).

The test system of data set [3] is rats with permanent occlusion of the medial cerebral artery. Nature of the data set: MCAO stroke model in rats, infarct volume. The conditions noted are these: 3-10 mg/kg i.p., infarct volume measured 72 hrs after occlusion. The class given is in vivo, rat. Here is the method: as §1
In this stroke model, the compound (3-10 mg/kg i.p.) reduced by 40% the volume of necrotic brain induced by the permanent occlusion of the medial cerebral artery.

T1 sequence (P18493 whole entry): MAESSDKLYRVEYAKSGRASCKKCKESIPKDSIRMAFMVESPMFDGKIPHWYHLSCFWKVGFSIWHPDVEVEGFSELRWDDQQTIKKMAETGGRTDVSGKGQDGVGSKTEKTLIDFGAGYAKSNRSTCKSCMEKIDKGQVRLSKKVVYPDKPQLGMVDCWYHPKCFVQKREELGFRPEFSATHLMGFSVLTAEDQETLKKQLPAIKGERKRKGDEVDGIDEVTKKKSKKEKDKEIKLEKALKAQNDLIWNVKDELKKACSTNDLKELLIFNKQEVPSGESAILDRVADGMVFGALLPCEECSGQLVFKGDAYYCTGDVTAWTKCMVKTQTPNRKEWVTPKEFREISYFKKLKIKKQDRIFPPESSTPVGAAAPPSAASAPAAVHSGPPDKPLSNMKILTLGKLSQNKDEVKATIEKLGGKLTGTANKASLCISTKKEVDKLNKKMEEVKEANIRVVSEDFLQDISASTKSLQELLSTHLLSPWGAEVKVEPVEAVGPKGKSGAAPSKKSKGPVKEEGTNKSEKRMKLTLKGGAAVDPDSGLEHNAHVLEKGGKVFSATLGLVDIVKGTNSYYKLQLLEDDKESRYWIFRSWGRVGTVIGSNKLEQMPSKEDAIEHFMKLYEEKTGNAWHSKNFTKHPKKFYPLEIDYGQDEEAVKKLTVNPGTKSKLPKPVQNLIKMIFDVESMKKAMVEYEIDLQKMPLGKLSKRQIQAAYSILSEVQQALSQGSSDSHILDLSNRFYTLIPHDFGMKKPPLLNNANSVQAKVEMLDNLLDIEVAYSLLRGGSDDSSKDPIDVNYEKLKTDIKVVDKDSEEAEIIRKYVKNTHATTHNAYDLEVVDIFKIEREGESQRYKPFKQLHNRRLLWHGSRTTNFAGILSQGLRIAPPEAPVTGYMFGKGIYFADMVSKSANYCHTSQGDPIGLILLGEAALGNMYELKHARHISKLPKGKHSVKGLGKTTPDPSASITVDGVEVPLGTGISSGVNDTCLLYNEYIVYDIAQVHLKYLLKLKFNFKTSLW

Usually IC50 stands for the concentration that gives 50% inhibition. Turning to `NC(=O)c1ccccc1` [Benzamide, reference compound], in data set [1], the IC50 was determined as 90000 nM. On to `O=c1[nH]c2sccc2c2ccccc12` [Example 1, Thieno[2,3-c]isoquinolin-5(4H)-one], for which the IC50 in data set [2] was around 3000 nM. In data set [3], the “reduction of the volume of necrotic brain” value turned out to be 40%. The term melting point denotes the temperature of the solid-liquid transition. The compound `O=c1[nH]c2sccc2c2c(O)cccc12` [Example 2, 9-Hydroxythieno[2,3-c]isoquinolin-5(4H)-one] had a melting point of 298 to 301 °C. In data set [1], the IC50 was 100 nM. The corresponding values for `COc1cccc2c(=O)[nH]c3sccc3c12` [Example 3, 9-Methoxythieno[2,3-c]isoquinolin-5(4H)-one] are 198 to 200 °C and 300 nM. On to `Nc1cccc2c(=O)[nH]c3sccc3c12` [Example 4, 9-Aminothieno[2,3-c]isoquinolin-5(4H)-one], for which the melting point is 297 to 299 °C. Also, the IC50 in data set [1] was 50 nM.
